According to BindingDB's records for doi:10.1016/j.chembiol.2014.09.011 (Astrazeneca R&D, 2014):

Tests used:
Experiment in all cases: AMPD Enzymatic Activity Assay
Conditions in all cases: pH 7.4
AMP deaminase 1 [1] = target: T1, AMP deaminase 1 (Homo sapiens, UniProt P23109)
T1 sequence (P23109 whole entry): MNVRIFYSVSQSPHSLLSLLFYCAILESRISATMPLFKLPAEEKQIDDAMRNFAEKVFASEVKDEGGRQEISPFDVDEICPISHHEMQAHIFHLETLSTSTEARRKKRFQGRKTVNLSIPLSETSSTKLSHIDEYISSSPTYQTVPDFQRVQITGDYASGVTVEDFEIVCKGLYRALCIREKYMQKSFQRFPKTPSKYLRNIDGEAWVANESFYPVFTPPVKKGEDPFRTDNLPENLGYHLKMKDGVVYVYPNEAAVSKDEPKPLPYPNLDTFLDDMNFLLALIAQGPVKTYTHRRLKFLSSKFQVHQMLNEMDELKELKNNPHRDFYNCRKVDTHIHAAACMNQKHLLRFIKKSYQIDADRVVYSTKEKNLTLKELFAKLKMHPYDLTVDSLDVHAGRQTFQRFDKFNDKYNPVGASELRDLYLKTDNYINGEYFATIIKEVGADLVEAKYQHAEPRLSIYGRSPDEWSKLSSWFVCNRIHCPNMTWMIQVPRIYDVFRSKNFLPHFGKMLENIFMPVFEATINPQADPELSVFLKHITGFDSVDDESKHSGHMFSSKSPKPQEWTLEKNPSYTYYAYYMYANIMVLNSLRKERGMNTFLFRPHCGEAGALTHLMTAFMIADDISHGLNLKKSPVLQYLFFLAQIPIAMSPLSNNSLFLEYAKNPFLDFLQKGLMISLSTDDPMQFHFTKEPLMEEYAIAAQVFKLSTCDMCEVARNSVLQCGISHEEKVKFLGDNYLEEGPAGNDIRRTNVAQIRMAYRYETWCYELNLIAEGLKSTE
Procedure: (§1) AMPD1 was added to buffer A (50 mM HEPES, 150 mM KCl, 5 mM MgCl2, and 0.5 mMglutathione [pH 7.4]) to a concentration of 10 nM. A substrate mix consistingof 2mMNADPH, 6mMa-ketoglutarate, 8mMAMP, and 15 U GDH was prepared in buffer A. Substrate mix ([…]) was added to the plate, followed by centrifugation and incubation for 1 hr. Detection was by absorbance at 340 nm following the conversion of NADPH to NADP+. Recombinant AMPD enzyme activity assays were performed in a 384-well format using the same conditions as described above, except the assay volume was […] and the AMP concentration for the AMPD2 assay was 8 mM. Different AMPD enzyme concentrations were used to have linear reactions: hAMPD1 (4 nM), hAMPD2 (38 nM), hAMPD3 (1 nM), rAMPD1 (116 nM), rAMPD2 (53 nM), rAMPD3 (31 nM), and mAMPD1 (816 nM).

AMP deaminase 1 [2] = target: T2, AMP deaminase 1 (Mus musculus, UniProt Q3V1D3)
T2 sequence (Q3V1D3 whole entry): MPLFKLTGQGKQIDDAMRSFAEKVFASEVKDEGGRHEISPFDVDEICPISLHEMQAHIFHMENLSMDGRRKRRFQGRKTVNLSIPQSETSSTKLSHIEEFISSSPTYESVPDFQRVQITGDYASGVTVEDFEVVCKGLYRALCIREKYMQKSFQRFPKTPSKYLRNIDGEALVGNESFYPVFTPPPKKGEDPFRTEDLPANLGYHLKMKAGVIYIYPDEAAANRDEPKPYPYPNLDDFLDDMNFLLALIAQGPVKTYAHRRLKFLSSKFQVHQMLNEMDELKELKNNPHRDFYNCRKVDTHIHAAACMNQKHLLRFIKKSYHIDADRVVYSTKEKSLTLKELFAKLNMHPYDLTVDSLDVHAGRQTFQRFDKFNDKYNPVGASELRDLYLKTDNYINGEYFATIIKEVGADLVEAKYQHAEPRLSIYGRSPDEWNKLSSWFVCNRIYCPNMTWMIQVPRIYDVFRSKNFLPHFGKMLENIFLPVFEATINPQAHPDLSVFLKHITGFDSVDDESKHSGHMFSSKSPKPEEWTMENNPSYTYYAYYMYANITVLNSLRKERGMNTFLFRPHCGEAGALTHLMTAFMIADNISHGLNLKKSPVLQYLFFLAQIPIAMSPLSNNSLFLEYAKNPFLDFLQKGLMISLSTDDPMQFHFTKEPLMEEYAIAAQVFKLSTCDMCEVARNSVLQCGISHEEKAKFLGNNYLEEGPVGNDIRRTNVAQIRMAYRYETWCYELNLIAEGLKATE
Procedure: as §1

AMP deaminase 1 [3] = target: T3, AMP deaminase 1 (Rattus norvegicus, UniProt P10759)
T3 sequence (P10759 whole entry): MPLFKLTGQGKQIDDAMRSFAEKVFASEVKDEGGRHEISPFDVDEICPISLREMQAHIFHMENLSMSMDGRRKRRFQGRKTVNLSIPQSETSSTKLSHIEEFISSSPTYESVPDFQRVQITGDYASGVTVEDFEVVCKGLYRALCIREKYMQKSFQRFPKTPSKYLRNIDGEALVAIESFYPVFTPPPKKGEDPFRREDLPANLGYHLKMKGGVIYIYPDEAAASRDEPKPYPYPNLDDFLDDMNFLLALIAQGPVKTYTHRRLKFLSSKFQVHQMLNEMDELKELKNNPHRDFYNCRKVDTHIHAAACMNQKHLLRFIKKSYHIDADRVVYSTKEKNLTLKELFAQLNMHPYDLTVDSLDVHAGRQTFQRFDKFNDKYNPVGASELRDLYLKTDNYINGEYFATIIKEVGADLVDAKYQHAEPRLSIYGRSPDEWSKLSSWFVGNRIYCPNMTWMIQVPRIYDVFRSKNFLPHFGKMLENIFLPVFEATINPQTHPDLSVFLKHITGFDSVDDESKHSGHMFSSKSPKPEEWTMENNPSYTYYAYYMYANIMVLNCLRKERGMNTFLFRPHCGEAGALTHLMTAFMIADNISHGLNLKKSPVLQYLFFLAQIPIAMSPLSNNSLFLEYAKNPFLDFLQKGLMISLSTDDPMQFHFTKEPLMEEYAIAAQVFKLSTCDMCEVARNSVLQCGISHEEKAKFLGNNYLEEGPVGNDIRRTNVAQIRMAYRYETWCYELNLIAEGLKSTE
Procedure: as §1

Row | IC50 (AMP deaminase 1 [1]) | IC50 (AMP deaminase 1 [2]) | IC50 (AMP deaminase 1 [3]) | Structure (SMILES)
1 | 9.2 µM | 4.5 µM | 5.8 µM | C[C@@H](NCc1ccc(-c2ccc(C(=O)O)cn2)cc1)c1cccc2ccncc12 [6-[4-({[(1R)-1-(isoquinolin-8-yl)ethyl]amino}methyl)phenyl]pyridine-3-carboxylic acid (Compound 2)]
2 | 0.038 µM | 0.024 µM | 0.027 µM | C[C@H](NCc1ccc(-c2ccc(C(=O)O)cn2)cc1)c1cccc2ccncc12 [6-[4-({[(1S)-1-(isoquinolin-8-yl)ethyl]amino}methyl)phenyl]pyridine-3-carboxylic acid (Compound 3)]
